{"source": "patent US10105437B2", "about": "“Epitopes related to coeliac disease” (BTG International Limited, priority 2004, dated 2018)", "key": {"[1]": {"test_system": "PBMC from HLA DQ8+DQ2- CD subjects", "experiment": "Interferon gamma ELISPOT, second round gliadin library in HLA DQ8 subjects", "assay_type": "cell-based, human", "conditions": "for subjects with dominant responses to one or both of these peptides: VYIPPYCTIAPFGIFG and/or AMCNVYIPPYCAMAPF; for subjects with dominant responses to one or both of these peptides / subjects with >70% response to maximal gliadin 16mer (dominant): five subjects; for subjects with >70% response to maximal gliadin 16mer (dominant): wheat gluten challenge", "description": "PBMC from two subjects initially challenged were used to screen the first round “Melbourne” wheat gliadin 20mer library. The 20mer sequences identified using PBMC from these two HLA DQ8 CD subjects were dissected further by screening, in five HLA DQ8+DQ2− CD subjects including the two original subjects, a second round library based on reactive 20mers in the 1st round library. The 2nd round library consisted of screening grade overlapping 16mers, and 13mers predicted to correspond to tTG-mediated deamidation products of epitopes with the potential for deamidation of glutamine at position 1 and/or position 9 (consistent with the HLA DQ8 peptide binding motif). In addition, the 1400 glutenin (HMW and LMW) tTG-pretreated 20mers in the “Melbourne” wheat gluten library were also screened in these five subjects."}, "[2]": {"test_system": "PBMC from HLA-DQ2+ coeliac subjects", "experiment": "Interferon gamma ELISPOT, secalin 20mer first round library after rye challenge", "assay_type": "cell-based, human", "conditions": "after rye challenge; 14 subjects", "experimental": "Peptides were initially dissolved in aqueous acetonitrile (50%). Peptides in aqueous acetonitrile were transferred to sterile 96-well plates and diluted in sterile PBS with 1 mM calcium (250 mcg/ml) and then incubated with tTG (25 mcg/ml) (Sigma T5398) for 6 h 37° C. and then stored frozen (−20° C.) until use.\nIFNγ ELISpot assays (Mabtech, Sweden) were performed in 96-well plates (MAIP S-45, Millipore) in which each well contained 25 mcl of peptide solution and 100 mcl of PBMC (2-8×10^5/well) in RPMI containing 10% heat inactivated human AB serum. After development and drying, IFNγ ELISpot plates were assessed using the MAIP automated ELISpot plate counter. Data was then analysed according to a novel algorithm (Expectation Maximization: EM) to define and quantify interferon-gamma responses to 9mer sequences contained within the peptide library (see FIG. 3 and below). 9mer peptides were then rationalised according to an algorithm that assumes redundancy in T-cell recognition, the “IterativeCluster” algorithm (see FIG. 4 and below), by allowing groups of amino acids with similar chemical properties at any one position in the 9mer, or for glutamate to replace glutamine at any position (assuming deamidation may have occurred).\nSecalin and hordein 20mer first round peptide libraries were assessed 3 days after completing rye (bread, 100 g/d for 3 days) or barley (boiled, 100 g/d for 3 days) challenge (“day 6” PBMC interferon gamma ELISPOT responses). Although iterative analysis using 2nd and 3rd round peptide libraries to define epitopes has not yet been performed, the 20mers pre-treated with tTG found to induce “potent” responses shared substantial structural similarity to the bioactive peptides identified after wheat challenge. […] The dominant (>70% maximal response) 20mer after rye challenge was usually […] (SEQ ID NO: 1769) (8/14 subjects), or occasionally […] (SEQ ID NO: 1770) (4/14), […] (SEQ ID NO: 1771) (1/14), […] (SEQ ID NO: 1772) (1/14) and/or […] (SEQ ID NO: 1773) (1/14). Additional peptides noted for greater than 40% maximal response in at least 1 subject include: […]"}}, "note": "Where no end group is shown, it is not given here.", "data": [{"substance": "(QE)GSFQPSQ(QE): previously published HLA DQ8 epitope, van der Wal 1998 (XGSFQPSQX; not fully specified; printed as (QE)GSFQPSQ(QE)) [reference compound]", "values": [{"measurement": "effect of deamidation of specific glutamine residues on ELISPOT responses", "setting": "[1]", "result": "enhanced or permissive to specific glutamine residues being deamidated"}]}, {"substance": "(QE)QPFP(QE)QP(QE): HLA DQ8 gliadin epitope motif, Q or E at marked positions (XQPFPXQPX; not fully specified; printed as (QE)QPFP(QE)QP(QE))", "values": [{"measurement": "effect of deamidation of specific glutamine residues on ELISPOT responses", "setting": "[1]", "result": "enhanced or permissive to specific glutamine residues being deamidated"}]}, {"substance": "(QE)QPFPLQP(QE): HLA DQ8 gliadin epitope motif, Q or E at marked positions (XQPFPLQPX; not fully specified; printed as (QE)QPFPLQP(QE))", "values": [{"measurement": "effect of deamidation of specific glutamine residues on ELISPOT responses", "setting": "[1]", "result": "enhanced or permissive to specific glutamine residues being deamidated"}]}, {"substance": "(QE)QPIPVQP(QE): HLA DQ8 gliadin epitope motif, Q or E at marked positions (XQPIPVQPX; not fully specified; printed as (QE)QPIPVQP(QE))", "values": [{"measurement": "effect of deamidation of specific glutamine residues on ELISPOT responses", "setting": "[1]", "result": "enhanced or permissive to specific glutamine residues being deamidated"}]}, {"substance": "(QE)QPQQPFP(QE): HLA DQ8 gliadin epitope motif, Q or E at marked positions (XQPQQPFPX; not fully specified; printed as (QE)QPQQPFP(QE))", "values": [{"measurement": "effect of deamidation of specific glutamine residues on ELISPOT responses", "setting": "[1]", "result": "enhanced or permissive to specific glutamine residues being deamidated"}]}, {"substance": "(QE)QPTPIQP(QE): HLA DQ8 gliadin epitope motif, Q or E at marked positions (XQPTPIQPX; not fully specified; printed as (QE)QPTPIQP(QE))", "values": [{"measurement": "effect of deamidation of specific glutamine residues on ELISPOT responses", "setting": "[1]", "result": "enhanced or permissive to specific glutamine residues being deamidated"}]}, {"substance": "AMCNVYIPPYCAMAPF (Description of Artificial Sequence: Synthetic gluten peptide) [gliadin 16mer, HLA DQ8]", "values": [{"measurement": "subjects with dominant responses to one or both of these peptides", "setting": "[1]", "result": "4/5"}, {"measurement": "subjects with >70% response to maximal gliadin 16mer (dominant)", "setting": "[1]", "result": "3/5"}]}, {"substance": "SPQQPQLPFPQPQQPFVVVV (Description of Artificial Sequence: Synthetic gluten peptide) [rye secalin 20mer]", "values": [{"measurement": "number of subjects with > 70% maximal response", "setting": "[2]", "result": 1}, {"measurement": "subjects with greater than 40% maximal response", "setting": "[2]", "result": "4/14"}]}, {"substance": "VGPSGQVSWPQQQPLPQPQQ (Description of Artificial Sequence: Synthetic gluten peptide) [rye secalin 20mer]", "values": [{"measurement": "number of subjects with > 70% maximal response", "setting": "[2]", "result": 2}, {"measurement": "subjects with greater than 40% maximal response", "setting": "[2]", "result": "2/14"}]}, {"substance": "VYIPPYCTIAPFGIFG (Description of Artificial Sequence: Synthetic gluten peptide) [gliadin 16mer, HLA DQ8]", "values": [{"measurement": "subjects with dominant responses to one or both of these peptides", "setting": "[1]", "result": "4/5"}, {"measurement": "subjects with >70% response to maximal gliadin 16mer (dominant)", "setting": "[1]", "result": "3/5"}]}]}
